{
  "source": "patent US12655436B2",
  "about": "“Import of unnatural or modified nucleoside triphosphates into cells via nucleic acid triphosphate transporters” (The Scripps Research Institute, priority 2014, dated 2026)",
  "key": {"[1]": {"test_system": "PtNTT2", "assay": "[α-32P]-dATP uptake into E. coli C41(DE3) expressing NTT, TLC/phosphorimaging", "assay_type": "cell-based, Phaeodactylum tricornutum", "settings": "for dATP transport into cells by NTT: PtNTT2", "description": "(§1) E. coli C41(DE3) freshly transformed with pCDF-1b-PtNTT2 was grown in 2×YT with streptomycin overnight, then diluted (1:100) into fresh 2×YT medium (1 ml of culture per uptake with [α-^32P]-dATP; 2 ml of culture per uptake with d5SICSTP or dNaMTP) supplemented with 50 mM potassium phosphate (KPi) and streptomycin. […] Cells were grown to an OD600 of ˜0.6 and expression was induced by the addition of IPTG (1 mM). The culture was allowed to grow for another hour (final OD600 ˜1.2) and then assayed directly for uptake as described below using a method adapted from Haferkamp, et al.\n(§2) To analyze the intracellular dephosphorylation of dATP, after induction of an NTT, an uptake reaction was initiated by the addition of dATP (spiked with [α-^32P]-dATP) to a final concentration of 0.25 mM, followed by incubation at 37° C. with shaking for 30 min. A culture was then centrifuged (8,000 rfu for 5 min, RT). Supernatant was analyzed by thin layer chromatography (TLC), while cell pellets were washed 3 times with ice cold KPi (50 mM, 100 μL) to remove excess radioactive substrate, lysed with NaOH (0.2 M, 100 μl) and centrifuged (10,000 rfu for 5 min RT) to pellet the cell debris, before the supernatant (1.5 μl) was analyzed by TLC.\nSamples (1 μl) were applied on a 0.5 mm polyethyleneimine cellulose TLC plate and eluted first by sodium formate (0.5 M, pH 3.0) for 30 sec, then by sodium formate (2.5 M, pH 3.0) for 2.5 m, and finally by sodium formate (4.0 M, pH 3.0) for 40 m. Plates were dried using a heat gun and quantified by phosphorimaging and imaging software.\nThe experiments described herein illustrate the plasmid-based expression of eight different NTTs in E. coli C41(DE3) (Table 9A). The uptake of [α-^32P]-dATP was examined as a surrogate for the unnatural triphosphates (FIG. 5)."}, "[2]": {"test_system": "TpNTT2", "assay": "[α-32P]-dATP uptake into E. coli C41(DE3) expressing NTT, TLC/phosphorimaging", "assay_type": "cell-based, Thalassiosira pseudonana", "description": "as §1\nas §2, with “TLC. […]” for “TLC.”"}, "[3]": {"test_system": "PamNTT2", "assay": "[α-32P]-dATP uptake into E. coli C41(DE3) expressing NTT, TLC/phosphorimaging", "assay_type": "cell-based, Protochlamydia amoebophila", "description": "as §1\nas §2, with “TLC. […]” for “TLC.”"}, "[4]": {"test_system": "PamNTT5", "assay": "[α-32P]-dATP uptake into E. coli C41(DE3) expressing NTT, TLC/phosphorimaging", "assay_type": "cell-based, Protochlamydia amoebophila", "description": "as §1\nas §2, with “TLC. […]” for “TLC.”"}, "[5]": {"test_system": "actively growing E. coli", "settings": "for degradation of triphosphate in the presence of actively growing E. coli: preliminary characterization, HPLC and MALDI", "protocol": "dNaMTP or d5SICSTP (10 mM each) were added to media to a final concentration of 0.25 mM. Cells were incubated with the substrate with shaking at 37° C. for 30 min and then pelleted (8,000 rfu for 5 min, 4° C.). An aliquot of the media fraction (40 μl) was mixed with acetonitrile (80 μl) to precipitate proteins, and then incubated at RT for 30 min. Samples were either analyzed immediately by HPLC or stored at −80° C. until analysis. Analysis began with centrifugation (12,000 rfu for 10 min, RT), then the pellet was discarded, and the supernatant was reduced to ˜20 μl, resuspended in 95% 0.1 M TEAB, pH 7.5; 5% acetonitrile, to a final volume of 50 μl, and analyzed by HPLC.\nSamples were applied to a LC column (3 μm C18 300 Å, 250×4.6 mm) and subjected to a linear gradient of 0-40% with 20% 0.1 M TEAB, pH 7.5; 80% acetonitrile over 40 min at a flow rate of 1 ml/min.\nInjection series included two extra control samples containing 5 nmol of dNaMTP or d5SICSTP. […] After peak integration, the ratio of the unknown peak to the control peak adjusted for the loss from the extraction step (62% and 70% loss for dNaM and d5SICS, respectively), provided a measure of the amount of each of the moieties in a sample. To determine the relative concentrations of unnatural nucleotide inside a cell, the amount of imported unnatural nucleotide was then divided by the volume of cells, which was calculated from the volume of a single E. coli cell of (1 μm^3) multiplied by the number of cells in each culture (OD600 of 1.0 equal to 1×10^9 cells per ml). An RpNTT2 sample was used as a negative control and its signal was subtracted to account for any incomplete washing of nucleotide species from the media."}, "[6]": {"test_system": "Polymerase", "settings": "10, 5, 2 or 1 μM, 30° C., 20 nM DNA", "protocol": "Polymerase (15 μg/ml) is incubated at 30° C. in buffer (50 mM TRIS pH 7.5, 0.05% Tween 20, 6 mM MgSO4, 1 mM EDTA, 50 mM NaCl) with 20 nM DNA. […] Tubes are incubated at 30° C. and aliquots are taken at 0.33, 0.66, 1, 2, 5, and 15 mins from the 4 reaction tubes for quenching and 15% urea acrylamide gel analysis. 1 mM dNTPs are added to the remaining reaction tubes and after a further 10 mins an aliquot is taken for gel analysis (chase)."}, "[7]": {"test_system": "PtNTT2", "assay": "Uptake of d5SICSTP or dNaMTP into E. coli C41(DE3) expressing PtNTT2, media and cytoplasmic fractions by HPLC", "assay_type": "cell-based, Escherichia coli C41(DE3) expressing PtNTT2", "description": "as §1\nTo analyze the intracellular dephosphorylation of unnatural nucleoside triphosphates, cell pellets were subjected to 3×100 μl washes of ice cold KPi (50 mM). Pellets were then resuspended in 250 μl of ice cold KPi (50 mM) and lysed with 250 μl of Lysis buffer L7 of the PureLink Quick Plasmid DNA Miniprep Kit (200 mM NaOH, 1% w/v SDS), after which the resulting solution was incubated at RT for 5 min. Precipitation buffer N4 (350 μl, 3.1 M potassium acetate, pH 5.5) was added, and the sample was mixed to homogeneity."}, "[8]": {"test_system": "E. coli C41(DE3)", "assay": "pINF replication in E. coli C41(DE3)-pACS: growth (OD600) and relative plasmid copy number", "settings": "0.25 mM triphosphates; absence of pINF", "protocol": "A single clone of freshly transformed E. coli C41(DE3)-pACS was grown overnight in 2×YT medium (3 ml) supplemented with streptomycin (50 μg/ml) and KPi (50 mM). After 100-fold dilution into the same medium (300 ml) and outgrowth at 37° C. to an OD600 of 0.20, IPTG was added to a final concentration of 1 mM to induce the expression of PtNTT2. After 40 min, the cultures were rapidly cooled to 0° C., washed with sterile water (3×150 ml), and resuspended in 10% glycerol (1.5 ml).\nAn aliquot of electrocompetent C41(DE3)-pACS cells (50 μL) was mixed with pINF (2 μL, 400 ng), and electroporated in a 0.2 cm gap cuvette. […]\nThe cells were resuspended in fresh 2×YT medium (1.5 ml, 50 μg/ml streptomycin, 100 μg/ml ampicillin, 1 mM IPTG, 50 mM KPi, 0.25 mM dNaMTP, 0.25 mM d5SICSTP) and grown at 37° C. with shaking (250 rpm). At defined time points, OD600 was determined and aliquots (100 μl) were removed and centrifuged (8000 rfu for 5 min, 4° C.). Spent media was analyzed for nucleotide composition by HPLC and pINF was recovered by spin column purification (Zymo Research Corp.). […]\nAfter recovery, the cells were centrifuged (4000 rfu for 5 min, 4° C.), spent media (0.15 ml) was removed and analyzed for nucleotide composition by HPLC. […]"}, "[9]": {"assay": "Nucleotide extraction from cells for HPLC analysis: recovery and triphosphate decomposition", "parameters": "species or system E. coli", "settings": "ratio of 3P composition before and after extraction", "description": "To minimize the effect of the lysis and triphosphate extraction protocols on the decomposition of nucleoside triphosphate within the cell, the following extraction procedure was discovered that led to an unexpectedly highest recovery with and low extent of decomposition (Table 9). Cells were grown, washed, and then 5 nmol of either dNaMTP or d5SICSTP was added to the pellets, which were then subjected to various types of extractions including boiling water, hot ethanol, cold methanol, freeze and thaw, lysozyme, glass beads, NaOH, trichloroacetic acid (TCA) with Freon, and perchloric acid (PCA) with KOH. The recovery and composition of the control was quantified by HPLC. […] Pellets were resuspended in ice cold KPi (50 mM, 250 μl) before addition of NaOH to decrease dephosphorylation after cell lysis (Method 4)."}},
  "data": [
    {"smiles": "Nc1ncnc2c1ncn2[C@H]1C[C@H](O)[C@@H](COP(=O)(O)OP(=O)(O)OP(=O)(O)O)O1", "note": "[dATP]", "values": [
      {"measurement": "[α-32P]-dATP uptake as a function of transporter induction", "setting": "[1]; 1 mM IPTG induction, media containing 50 mM KPi", "result": "maximal"},
      {"measurement": "dATP transport into cells by NTT", "setting": "[1]", "result": "efficiently transported"},
      {"measurement": "dATP transport into cells by NTT", "setting": "[1]; listed as [α-^32P]-dATP", "result": "significantly more active"},
      {"measurement": "dATP transport into cells by NTT", "setting": "[2]", "result": "efficiently transported"},
      {"measurement": "dATP uptake by NTT", "setting": "[3]", "result": "measurable uptake"},
      {"measurement": "dATP uptake by NTT", "setting": "[4]", "result": "measurable uptake"},
      {"measurement": "extracellular stability in the presence of potassium phosphate (KPi)", "setting": "[5]; KPi in growth medium", "result": "significantly increased"}
    ]},
    {"smiles": "COc1cc2ccccc2cc1[C@H]1C[C@H](O)[C@@H](CO)O1", "note": "[(d)NaM]", "values": [
      {"measurement": "addition to DNA primer by polymerase (gel band shift)", "setting": "[6]", "result": "extension by one base"}
    ]},
    {"smiles": "Cc1ccc2c(=S)n([C@H]3C[C@H](O)[C@@H](COP(=O)(O)OP(=O)(O)OP(=O)(O)O)O3)ccc2c1", "note": "[d5SICSTP]", "values": [
      {"measurement": "import into E. coli by PtNTT2", "setting": "[7]", "result": "efficiently imported"},
      {"measurement": "degradation of triphosphate in the presence of actively growing E. coli", "setting": "[5]", "result": "degraded"},
      {"measurement": "effect of added triphosphates on E. coli growth / toxicity", "setting": "[8]", "result": "only a slight decrease in growth"}
    ]},
    {"smiles": "COc1cc2ccccc2cc1[C@H]1C[C@H](O)[C@@H](CO)O1", "note": "[dNaM]", "values": [
      {"measurement": "Triphosphate stability, %", "setting": "[9]; Method 1 TCA with Freon", "result": 92, "unit": "%"},
      {"measurement": "Triphosphate stability, %", "setting": "[9]; Method 2 PCA w/KOH", "result": 98, "unit": "%"},
      {"measurement": "Triphosphate stability, %", "setting": "[9]; Method 3 NaOH w/KOAc", "result": 86, "unit": "%"},
      {"measurement": "Triphosphate stability, %", "setting": "[9]; Method 4 NaOH w/KOAc supplemented w/ KPi (50 mM)", "result": 99, "unit": "%"}
    ]},
    {"smiles": "Cc1ccc2c(=S)n([C@H]3C[C@H](O)[C@@H](CO)O3)ccc2c1", "note": "[(d)5SICS]", "values": [
      {"measurement": "addition to DNA primer by polymerase (gel band shift)", "setting": "[6]", "result": "extension by one base"}
    ]},
    {"smiles": "COc1cc2ccccc2cc1[C@H]1C[C@H](O)[C@@H](COP(=O)(O)OP(=O)(O)OP(=O)(O)O)O1", "note": "[dNaMTP]", "values": [
      {"measurement": "import into E. coli by PtNTT2", "setting": "[7]", "result": "efficiently imported"},
      {"measurement": "degradation of triphosphate in the presence of actively growing E. coli", "setting": "[5]", "result": "degraded"},
      {"measurement": "effect of added triphosphates on E. coli growth / toxicity", "setting": "[8]", "result": "only a slight decrease in growth"}
    ]},
    {"smiles": "O=P(O)(O)O", "note": "[KPi, potassium phosphate, reference compound]", "values": [
      {"measurement": "inhibition of dephosphorylation of unnatural triphosphates", "setting": "[5]; growing bacterial culture", "result": "significantly inhibited"}
    ]}
  ]
}
